The values that follow come from PMC11596928, “Substrate-Induced Structural Dynamics and Evolutionary Linkage of Siderophore-Iron ABC Transporters of Mycobacterium tuberculosis” (Medicina, 2024).

This assay has as its target ATPase II (rATPase II), ATPase domain of IrtB (Mycobacterium tuberculosis, UniProt P9WQJ7).

Sequence of ATPase II (rATPase II), ATPase domain of IrtB (P9WQJ7 313-579): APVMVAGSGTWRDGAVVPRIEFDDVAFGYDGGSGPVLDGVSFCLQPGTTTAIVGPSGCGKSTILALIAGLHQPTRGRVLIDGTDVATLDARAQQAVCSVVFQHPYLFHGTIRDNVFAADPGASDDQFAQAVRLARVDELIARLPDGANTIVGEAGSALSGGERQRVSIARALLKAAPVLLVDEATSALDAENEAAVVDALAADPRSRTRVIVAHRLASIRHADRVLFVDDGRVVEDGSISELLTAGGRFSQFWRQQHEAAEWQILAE

Turning to `Nc1ncnc2c1ncn2[C@@H]1O[C@H](COP(=O)(O)OP(=O)(O)OP(=O)(O)O)[C@@H](O)[C@H]1O` [ATP], the “analytical gel filtration (ATP-dependent dimerization)” value is given as “ATPase II (the ATPase belonging to IrtB) dimers were captured as stable dimers”.
